# Assay results from patent US20040105849A1, “Treatment for SMA disease” (priority 2002, published 2004).
# How the values were obtained:
# [1] = tested on: Patient A, Spinal Muscular Atrophy (SMA) Type I; experiment: Tolerability / adverse effects of the supplements in Patient A; type: in vivo, human
# Excerpt: It is understood that the amounts of the various ingredients of the method of the invention can be, as may be necessary, conveniently be adjusted up or down for body weigh and other variants of the disease. The mode of delivery may vary. […] Ingredients could also be injected into the gastric tube in solid, gel or semi-solid form. Other children may swallow ingredients in solid or liquid form (with pharmaceutically acceptable carriers, e.g., water).
# [2] = tested on: Infantile Seborrhoeic Dermatitis (cradle cap); experiment: Treatment of Infantile Seborrhoeic Dermatitis (cradle cap) in Patient A; type: in vivo, human; settings: about 4,000 mcg at intervals of three days per week
# Excerpt: Early Symptoms and Patient Diagnosis. The patient (“Patient A”), a person. They were normal at birth with no signs of muscular weakness. Within three months of their birth, they developed a skin condition. […] Infantile Seborrhoeic Dermatitis, also known as cradle cap, is a condition that occurs in infants and is caused by the drying of excess oils excreted from the infant's body. It is characterized by a yellowish-whitish crust on the infant's head. Following medical consultation, various topical creams and ointments were employed without success. The B vitamin biotin was then given at a dosage of about 4,000 mcg at intervals of three days per week. Current research attributes cradle cap to a deficiency of this vitamin. […] Gut bacteria located in the large intestine are responsible for the production this B vitamin and a deficiency of this nutrient under normal conditions is rare.
compound,measurement,setting,value
C[C@@H]1O[C@@H](OC[C@H]2O[C@@H](Oc3c(-c4ccc(O)c(O)c4)oc4cc(O)cc(O)c4c3=O)[C@H](O)[C@@H](O)[C@@H]2O)[C@H](O)[C@H](O)[C@H]1O [Rutin],adverse effects at higher dosages,[1]; dosages higher than approximately 3 mg every three days,"nausea, decrease gastrointestinal motility and drowsiness"
same,adverse effect of rutin along with pectin,[1]; rutin added to pectin,caused their lips to blister and peel
O=C(O)CCCC[C@@H]1SC[C@@H]2NC(=O)N[C@@H]21 [biotin],course of cradle cap,[2],resolved itself almost immediately
O=c1c(O)c(-c2ccc(O)c(O)c2)oc2cc(O)cc(O)c12 [quercetin],adverse effect of too much quercetin,"[1]; above 300 mg capsule, ½ capsule three days per week",depress Patient A's respiration
